Assay results from patent publication US8557833B2, “Aminopyrimidines useful as kinase inhibitors” (priority 2005, dated 2013).
Like-named read-outs stand apart in the source and are kept apart here.

Tests used:
Aurora-1 (Aurora B) = Aurora-1 (Aurora B) (Homo sapiens, UniProt Q96GD4); assay: Aurora-1 (Aurora B) inhibition assay (radiometric); format: biochemical
Experimental: An assay buffer solution was prepared which consisted of 25 mM HEPES (pH 7.5), 10 mM MgCl2, 0.1% BSA and 10% glycerol. […] To 22 μL of the Aurora-B solution, in a 96-well plate, was added 2 μl of a compound stock solution in DMSO and the mixture allowed to equilibrate for 10 minutes at 25° C. The enzyme reaction was initiated by the addition of 16 μl stock [γ-^33P]-ATP solution (˜20 nCi/μL) prepared in assay buffer, to a final assay concentration of 800 μM. The reaction was stopped after 3 hours by the addition of 16 μL 500 mM phosphoric acid and the levels of ^33P incorporation into the peptide substrate were determined by the following method.
A phosphocellulose 96-well plate (Millipore, Cat no. MAPHNOB50) was pre-treated with 100 μL of a 100 mM phosphoric acid prior to the addition of the enzyme reaction mixture (40 μL). The solution was left to soak on to the phosphocellulose membrane for 30 minutes and the plate subsequently washed four times with 200 μL of a 100 mM phosphoric acid. […] Levels of non-enzyme catalyzed background radioactivity were determined by adding 16 μL of the 500 mM phosphoric acid to control wells, containing all assay components (which acts to denature the enzyme), prior to the addition of the [γ-^33P]-ATP solution. Levels of enzyme catalyzed ^33P incorporation were calculated by subtracting mean background counts from those measured at each inhibitor concentration. […] Ki values were calculated from initial rate data by non-linear regression using the Prism software package (Prism 3.0, Graphpad Software, San Diego, Calif.).

Aurora-2 (Aurora A) = target: T1, Aurora-2 (Aurora A) (Homo sapiens, UniProt O14965); assay: Aurora-2 (Aurora A) inhibition assay, coupled enzyme; format: biochemical
T1 sequence (O14965 1-403): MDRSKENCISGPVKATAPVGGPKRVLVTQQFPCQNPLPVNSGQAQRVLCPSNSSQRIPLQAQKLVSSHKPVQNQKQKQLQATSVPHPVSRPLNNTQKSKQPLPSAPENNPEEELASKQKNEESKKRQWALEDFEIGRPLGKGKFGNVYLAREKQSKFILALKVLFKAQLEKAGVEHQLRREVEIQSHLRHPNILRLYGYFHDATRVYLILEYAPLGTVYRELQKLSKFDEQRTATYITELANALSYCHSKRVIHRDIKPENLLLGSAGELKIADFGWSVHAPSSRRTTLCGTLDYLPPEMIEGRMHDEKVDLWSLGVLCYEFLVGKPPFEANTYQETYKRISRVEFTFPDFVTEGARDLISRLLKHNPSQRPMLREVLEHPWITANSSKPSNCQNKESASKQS
Experimental: Assays were carried out in a mixture of 100 mM Hepes (pH7.5), 10 mM MgCl2, 1 mM DTT, 25 mM NaCl, 2.5 mM phosphoenolpyruvate, 300 μM NADH, 30 μg/ml pyruvate kinase and 10 μg/ml lactate dehydrogenase. […] Assays were carried out at 30° C. and in the presence of 40 nM Aurora-2.
An assay stock buffer solution was prepared containing all of the reagents listed above, with the exception of Aurora-2 and the test compound of interest. […] The plate was preincubated for 10 minutes at 30° C. and the reaction initiated by addition of 10 μl of Aurora-2. Initial reaction rates were determined with a Molecular Devices SpectraMax Plus plate reader over a 10 minute time course. IC50 and Ki data were calculated from non-linear regression analysis using the Prism software package (GraphPad Prism version 3.0cx for Macintosh, GraphPad Software, San Diego Calif., USA).

[1] = Microsomal stability assay; format: in vitro ADME; details: 5 μM compound, 1 mg/mL liver microsome protein, 37° C., species not given
Experimental: Microsomal stability was monitored by generation of depletion-time profiles in microsomes from a range of species (male CD-1 mouse, male Sprague-Dawley rat, male Beagle dog, male Cynomolgus monkey and pooled mixed gender human). Compound spiking solutions were made up by diluting down the compound stock solution in DMSO (typically 10 mM) to give a solution in acetonitrile (0.5 mM). […].
The reaction was initiated by the addition (250 μL) of the pre-incubated RGS to the pre-incubated microsome/VRT/PB mixture (pre-incubation in both instances was for 10 minutes at 37° C.). Samples were incubated within Eppendorf vials (1.5 ml) on a heater shaker (DPC Micromix 5 (settings; form 20, amplitude 4) modified to be heated, to 37° C., by two plate heaters fixed to the deck and controlled by a Packard Manual Heater) attached to a Multiprobe II HT Ex automated liquid handler. The liquid handler was programmed (WinPREP software) to sample the microsomal incubation mixture after 0, 2, 10, 30 and 60 minutes of incubation and transfer an aliquot (100 μL) to a stop block (96-well block) containing 100 μL of chilled methanol. The % organic in the stop mixture was optimized for analysis by addition of appropriate volumes of aqueous/organic (typically 100 μl of 50:50 methanol:water).
Prior to analysis the stop block was placed on a shaker (DPC Micromix 5; 10 min, form 20, amplitude 5) to precipitate out proteins. The block was then centrifuged (Jouan GR412; 2000 rpm, 15 min, 4° C.). A sample aliquot (200 μL) was then transferred to an analysis block and the block was centrifuged again (Jouan GR412; 2000 rpm, 5 min, 4° C.) prior to being sent for analysis. Depletion profiles were determined by monitoring the disappearance of VRT by liquid chromatography-tandem mass spectrometry (LC-MS/MS). Samples were injected (20 μL; Agilent 1100 liquid chromatographic system equipped with autosampler) onto an analytical column. Mobile phase consisted of Water+0.05% (v/v) formic acid (A) and methanol+0.05% (v/v) formic acid (B).
Running a gradient method optimized for the compound of interest carried out the compound elution from analytical column. The total run time was 6 minutes with a flow rate of 0.35 mL/min. The entire column effluent entered the electrospray ionization source (positive mode) of a Micromass Quattro LC tandem mass spectrometer between 0.5 and 5.9 min of the run. The mass spectrometry was optimized for the compound of interest. All incubations were conducted in duplicate and results were expressed as % parent remaining at either 30 minutes or 60 minutes relative to 0 minutes sample.

JAK-2 = JAK-2 (Homo sapiens, UniProt O60674); assay: JAK2 inhibition assay; format: biochemical; details: 12 μM ATP, 15 μM poly(Glu)4Tyr
Chain of JAK-2 (O60674 whole entry, species assumed): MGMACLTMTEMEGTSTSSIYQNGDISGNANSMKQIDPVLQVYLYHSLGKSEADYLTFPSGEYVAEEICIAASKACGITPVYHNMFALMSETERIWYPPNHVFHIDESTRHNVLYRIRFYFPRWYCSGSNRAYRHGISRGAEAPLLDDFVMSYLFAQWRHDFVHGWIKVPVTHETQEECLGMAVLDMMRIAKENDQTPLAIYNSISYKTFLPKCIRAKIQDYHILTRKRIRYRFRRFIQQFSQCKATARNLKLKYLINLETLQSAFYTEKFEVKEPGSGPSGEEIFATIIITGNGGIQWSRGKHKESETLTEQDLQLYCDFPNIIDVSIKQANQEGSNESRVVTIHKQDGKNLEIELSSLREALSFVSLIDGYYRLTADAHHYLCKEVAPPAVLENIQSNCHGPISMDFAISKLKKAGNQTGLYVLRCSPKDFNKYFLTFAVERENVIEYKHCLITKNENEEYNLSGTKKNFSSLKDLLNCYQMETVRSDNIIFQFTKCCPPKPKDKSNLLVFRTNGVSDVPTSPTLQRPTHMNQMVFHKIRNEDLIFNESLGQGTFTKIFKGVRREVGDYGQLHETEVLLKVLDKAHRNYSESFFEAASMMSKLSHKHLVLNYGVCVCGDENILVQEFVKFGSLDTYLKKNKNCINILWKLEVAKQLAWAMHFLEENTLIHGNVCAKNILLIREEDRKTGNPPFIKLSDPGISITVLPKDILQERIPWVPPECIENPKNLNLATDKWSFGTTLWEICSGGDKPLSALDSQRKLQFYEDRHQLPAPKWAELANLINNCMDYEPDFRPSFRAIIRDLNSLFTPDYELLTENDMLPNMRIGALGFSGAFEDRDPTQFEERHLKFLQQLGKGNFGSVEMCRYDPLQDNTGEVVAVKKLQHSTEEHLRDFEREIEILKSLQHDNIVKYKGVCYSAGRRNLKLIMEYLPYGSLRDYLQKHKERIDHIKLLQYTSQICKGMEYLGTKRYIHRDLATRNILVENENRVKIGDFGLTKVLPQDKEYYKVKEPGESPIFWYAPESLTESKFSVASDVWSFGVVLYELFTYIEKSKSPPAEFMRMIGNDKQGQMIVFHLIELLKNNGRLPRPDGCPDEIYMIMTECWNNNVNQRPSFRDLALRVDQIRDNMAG

FLT-3 = target: T2, FLT-3 (Homo sapiens, UniProt P36888); assay: FLT-3 inhibition assay, radiometric filter-binding; format: biochemical
T2 sequence (P36888 27-993): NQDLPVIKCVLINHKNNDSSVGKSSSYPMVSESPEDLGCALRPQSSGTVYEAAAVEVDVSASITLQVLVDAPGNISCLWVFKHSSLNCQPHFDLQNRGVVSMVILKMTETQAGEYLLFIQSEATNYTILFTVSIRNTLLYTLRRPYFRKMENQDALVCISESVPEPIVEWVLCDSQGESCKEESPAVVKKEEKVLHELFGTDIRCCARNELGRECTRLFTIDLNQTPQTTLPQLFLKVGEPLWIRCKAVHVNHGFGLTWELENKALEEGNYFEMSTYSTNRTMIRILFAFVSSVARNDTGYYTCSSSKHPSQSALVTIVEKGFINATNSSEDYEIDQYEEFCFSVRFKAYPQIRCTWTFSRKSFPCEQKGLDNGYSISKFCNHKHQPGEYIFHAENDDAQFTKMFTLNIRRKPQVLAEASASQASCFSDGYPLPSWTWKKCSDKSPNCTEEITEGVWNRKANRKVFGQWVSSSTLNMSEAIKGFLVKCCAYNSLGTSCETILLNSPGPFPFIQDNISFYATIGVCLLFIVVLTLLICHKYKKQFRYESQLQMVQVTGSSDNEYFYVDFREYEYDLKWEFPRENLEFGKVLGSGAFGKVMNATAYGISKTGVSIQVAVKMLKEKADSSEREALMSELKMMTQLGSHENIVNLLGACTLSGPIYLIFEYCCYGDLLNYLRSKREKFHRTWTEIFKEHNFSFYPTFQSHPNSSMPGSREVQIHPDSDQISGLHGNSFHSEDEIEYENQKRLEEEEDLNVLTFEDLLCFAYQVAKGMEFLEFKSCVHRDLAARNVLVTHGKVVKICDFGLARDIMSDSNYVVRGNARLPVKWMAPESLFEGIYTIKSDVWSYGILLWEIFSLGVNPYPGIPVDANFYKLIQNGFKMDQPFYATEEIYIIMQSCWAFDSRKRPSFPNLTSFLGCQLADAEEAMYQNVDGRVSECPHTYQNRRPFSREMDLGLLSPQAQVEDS
Experimental: This assay monitors the 33P incorporation into a substrate poly(Glu, Tyr) 4:1 (pE4Y). […] Final substrate concentrations in the assay were 90 μM ATP and 0.5 mg/ml pE4Y (both from Sigma Chemicals, St Louis, Mo.). […] Reactions were carried out at room temperature.
Two assay solutions were prepared. Solution 1 contains 100 mM HEPES (pH 7.5), 10 mM MgCl2, 25 mM NaCl, 1 mg/ml pE4Y and […] (containing 0.3 mCi of [γ-33^P]ATP for each reaction). Solution 2 contains 100 mM HEPES (pH 7.5), 10 mM MgCl2, 25 mM NaCl, 2 mM DTT, 0.02% BSA and 3 nM FLT-3. The assay was run on a 96 well plate by mixing 50 μl each of Solution 1 and […] of the compounds of the present invention. The reaction was initiated with Solution 2. […] All of the reaction volume was then transferred to a filter plate and washed with 5% TCA by a Harvester 9600 from TOMTEC (Hamden, Conn.). The amount of ^33P incorporation into pE4y was analyzed by a Packard Top Count Microplate Scintillation Counter (Meriden, Conn.). The data was fitted using Prism software to get an IC50 or Ki.

[2] = target: N-terminally truncated Abl kinase; assay: Abl kinase activity inhibition assay, coupled enzyme; format: biochemical; details: read-out: Abl (wild) Ki; 110 μM ATP, 30° C., 21 nM Abl kinase
Chain of N-terminally truncated Abl kinase (P00519 28-1130): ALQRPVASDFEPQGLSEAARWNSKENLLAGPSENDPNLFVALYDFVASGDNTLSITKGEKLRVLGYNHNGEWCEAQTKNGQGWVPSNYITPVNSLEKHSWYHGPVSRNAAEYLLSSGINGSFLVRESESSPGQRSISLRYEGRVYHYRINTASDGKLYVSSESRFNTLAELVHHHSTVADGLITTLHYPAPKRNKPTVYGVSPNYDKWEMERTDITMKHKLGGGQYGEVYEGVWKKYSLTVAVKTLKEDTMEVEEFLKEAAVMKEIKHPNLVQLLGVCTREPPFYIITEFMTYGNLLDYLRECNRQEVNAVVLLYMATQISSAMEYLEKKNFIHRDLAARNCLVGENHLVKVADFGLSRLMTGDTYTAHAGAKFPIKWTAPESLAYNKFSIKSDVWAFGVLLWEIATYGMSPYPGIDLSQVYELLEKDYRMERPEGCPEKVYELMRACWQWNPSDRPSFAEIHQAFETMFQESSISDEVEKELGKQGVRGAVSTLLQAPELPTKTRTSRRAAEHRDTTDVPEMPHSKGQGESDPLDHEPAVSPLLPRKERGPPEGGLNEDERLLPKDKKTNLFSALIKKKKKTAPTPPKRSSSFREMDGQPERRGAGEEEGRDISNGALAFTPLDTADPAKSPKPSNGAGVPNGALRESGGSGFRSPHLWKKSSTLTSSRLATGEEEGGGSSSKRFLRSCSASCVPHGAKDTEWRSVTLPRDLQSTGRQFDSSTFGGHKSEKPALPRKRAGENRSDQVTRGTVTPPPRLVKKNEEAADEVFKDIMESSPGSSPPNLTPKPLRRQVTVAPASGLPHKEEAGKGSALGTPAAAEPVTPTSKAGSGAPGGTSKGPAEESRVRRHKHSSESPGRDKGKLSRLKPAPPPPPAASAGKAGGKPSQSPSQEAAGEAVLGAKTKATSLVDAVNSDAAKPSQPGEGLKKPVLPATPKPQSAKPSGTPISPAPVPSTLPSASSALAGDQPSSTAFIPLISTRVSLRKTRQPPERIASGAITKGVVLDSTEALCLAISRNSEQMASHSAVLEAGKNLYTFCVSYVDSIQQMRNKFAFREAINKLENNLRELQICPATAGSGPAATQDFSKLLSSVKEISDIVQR
Experimental: Final concentrations of the components of the coupled enzyme system were 2.5 mM phosphoenolpyruvate, 200 μM NADH, […] pyruvate kinase and 20 μg/ml lactate dehydrogenase.
An assay stock buffer solution was prepared containing all of the reagents listed above with the exception of ATP and the test compound of interest. […] Rates of reaction were obtained using a Molecular Devices Spectramax plate reader (Sunnyvale, Calif.) over 10 min at 30° C. The Ki values were determined from the residual rate data as a function of inhibitor concentration using nonlinear regression (Prism 3.0, Graphpad Software, San Diego, Calif.).

[3] = 800 μM ATP, Kemptide, 25° C., read-out: Aurora B Ki
[4] = 400 μM ATP, 570 μM Kemptide, 30° C., 40 nM Aurora-2, read-out: Aurora A Ki

Chain of Aurora-1 (Aurora B) (Q96GD4 whole entry): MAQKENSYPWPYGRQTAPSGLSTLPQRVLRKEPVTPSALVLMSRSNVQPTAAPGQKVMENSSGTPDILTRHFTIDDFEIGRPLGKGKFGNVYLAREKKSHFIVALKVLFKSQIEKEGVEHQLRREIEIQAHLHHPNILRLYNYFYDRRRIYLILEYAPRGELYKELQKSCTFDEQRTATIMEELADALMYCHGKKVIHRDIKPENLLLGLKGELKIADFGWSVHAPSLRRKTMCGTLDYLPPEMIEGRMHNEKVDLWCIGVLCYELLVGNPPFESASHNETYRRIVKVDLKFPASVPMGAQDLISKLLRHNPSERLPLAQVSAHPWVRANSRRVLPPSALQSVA

| Structure (SMILES) | Ki (Aurora-1 (Aurora B)) | Ki (Aurora-2 (Aurora A)) | Microsomal Stability (% remaining after 30 min.) [1] | Microsomal Stability (% remaining after 60 min.) [1] | Ki (JAK-2) | Ki (Aurora-1 (Aurora B); [3]) | Ki (FLT-3; 90 μM ATP, 0.5 mg/ml pE4Y, room temperature, read-out: FLT-3 Ki) | Ki [2] | Ki (Aurora-2 (Aurora A); [4]) | Ki (FLT-3) |
| --- | --- | --- | --- | --- | --- | --- | --- | --- | --- | --- |
| Cc1cc(Nc2cc(N3CCC3)nc(Sc3ccc(NC(=O)c4cccc(F)c4F)cc3)n2)[nH]n1 [Compound I-7] | – | – | 102% | 69% | 41 nM | 5.1 nM | 250 nM | 35 nM | – | – |
| Cc1cc(Nc2cc(N3CCC3)nc(Sc3ccc(NC(=O)c4cc(F)ccc4F)cc3)n2)[nH]n1 [Compound I-10] | – | – | – | – | – | < 25 nM | – | – | 1.8 nM | – |
| Cc1cc(Nc2cc(N3CCC3)nc(Sc3ccc(NC(=O)c4cccc(Cl)c4Cl)cc3)n2)n[nH]1 [Compound I-9] | 6.5 nM | 0.85 nM | – | 69% | – | – | – | – | – | – |

Results, then the molecule that gave them:

| Ki (Aurora-1 (Aurora B)) | Ki (Aurora-2 (Aurora A)) | Microsomal Stability (% remaining after 30 min.) [1] | Microsomal Stability (% remaining after 60 min.) [1] | Ki (JAK-2) | Ki (Aurora-1 (Aurora B); [3]) | Ki (FLT-3; 90 μM ATP, 0.5 mg/ml pE4Y, room temperature, read-out: FLT-3 Ki) | Ki [2] | Ki (Aurora-2 (Aurora A); [4]) | Ki (FLT-3) | Structure (SMILES) |
| --- | --- | --- | --- | --- | --- | --- | --- | --- | --- | --- |
| 7.5 nM | 0.56 nM | 91% | 63% | 440 nM | – | – | – | – | – | CCc1cc(Nc2cc(N3CCC3)nc(Sc3ccc(NC(=O)c4ccccc4Cl)cc3)n2)n[nH]1 [Compound I-16] |
| – | – | – | – | 660 nM | 18 nM | – | – | 1 nM | 700 nM | Cc1cc(Nc2cc(N3CCC3)nc(Sc3ccc(NC(=O)c4ccccc4Cl)nc3)n2)[nH]n1 [Compound I-24] |
| – | – | 89% | 58% | 63 nM | 8 nM | – | – | 0.6 nM | – | COc1cccc(C(=O)Nc2ccc(Sc3nc(Nc4cc(C)n[nH]4)cc(N4CCC4)n3)cc2)c1 [Compound I-18] |
| – | 1.4 nM | – | – | – | 6 nM | – | – | – | – | CSc1ccccc1C(=O)Nc1ccc(Sc2nc(Nc3cc(C)[nH]n3)cc(N3CCC3)n2)cc1 [Compound I-23] |
